This is an account of results in article PMC6161027, “In Vitro Stimulation of Multidrug Resistance-Associated Protein 2 Function Is Not Reproduced In Vivo in Rats” (Pharmaceutics, 2018).

Broadly, the Cmax is the highest concentration seen after dosing. One may read the fraction unbound as free concentration divided by total concentration. High values mean weak binding, low ones extensive binding. One may read the Km as the substrate concentration at which the rate is half of its maximum.

Values joined by “and” are separate entries in the source; they are usually repeats but may differ in a detail not shown here. Equal entries are not always repeated. “Also recorded” adds a separate entry of the source. Structures can show the parent of a compound that is named as a salt. Where two headings read alike, the source gives them in different places.

In data set [1] the target is T1, rat Mrp2 (Rattus norvegicus, UniProt Q63120). As to conditions: for % Net decrease in ATP-dependent CP-I uptake in presence of bilirubin: bilirubin 10 µM, uptake with modulator alone as control, duplicate wells. As to the method: Figure 3 Effect of bilirubin on the transport of CP-I using rat Mrp2 vesicles in the presence and absence of modulators. Rat Mrp2 vesicles (50 µg/well) were preincubated with and without bilirubin (10 µM) and modulators for 3 min at 37 °C. % Net decrease in ATP-dependent CP-I uptake in presence of bilirubin was calculated by taking CP-I uptake values in presence of modulators as control. All data values presented as mean of single experiment performed in duplicate wells.

Data set [2] deals with Mrp2. Also noted: method as in PMID 15194559. As to conditions: rats ref 17; cited from earlier work.
The next data set has as its system Oatp. The experiment in a line: CP-I uptake in suspended rat hepatocytes with and without rifamycin SV. The note with it: rifamycin SV 1 mM, CP-I 0.5 µM, 37 °C, result in words. The class given is cell-based.
Data set [3] concerns the target T1, rat Mrp2. As to conditions: for effect on rat Mrp2-mediated CP-I transport in vitro: 15 min, result in words. As to the method:
Rat Mrp2-mediated CP-I transport was measured in inside-out membrane vesicles. Mrp2 vesicle protein (50 µg/well) were preincubated with modulators at above reported concentrations at 37 °C and reaction was started by adding CP-I (5 µM) and incubated for 15 min. NP; not performed. For more on experimental details refer to Section 2.3. Dotted line represents basal level (100%) of CP-I uptake in control wells in the presence of ATP with no modulators added. All data values presented as mean and SD of single experiment performed in triplicate wells.

Data set [4] in a line: Plasma and liver concentrations of modulators after i.v. infusion in rats. The class given is in vivo. As to conditions: Sprague-Dawley, rat; for Cmax: plasma, iv; for Kp at 3 h: liver at terminal time point (3 h).
The next data set can be described thus: in vitro. The note with it: tissue homogenate.
For another data set, the system named is human MRP2. The note with it: cited from earlier work; for stimulation of CP-I transport in human MRP2 vesicles / effect on MRP2 when CP-I is used as probe substrate: result in words ref 10.
For data set [5], the target named is T2, Mrp2 (Rattus norvegicus, UniProt Q63120). Put plainly: Biliary and renal secretion of endogenous CP-I and CP-III in bile duct cannulated rats before and after modulators. The note with it: for Bile Flow: cumulative volume / total collection time, mean ± SD, three animals; for Mrp2-mediated CP-I transport in vivo (biliary clearance, cumulative amount in bile) before and after treatment: bile duct cannulated rats.

The subject of data set [6] is Mrp2. More on the design: method as in PMID 27964938. The note with it: in the presence of metformin, plasma exposure not affected ref 9; cited from earlier work.
The subject of data set [7] is flurbiprofen metabolism in liver microsome. Also noted: method as in PMID 11457649, PMID 9521735. As to conditions: in presence of dapsone ref 22, 23; cited from earlier work.
Details of data set [8]: method as in PMID 11457649, PMID 9521735. As to conditions: humans, in presence of dapsone ref 22, 23; cited from earlier work.
Data set [9] relates to Mrp2. More on the design: method as in PMID 19118132. The note with it: cited from earlier work.
Data set [10] concerns the target T1, rat Mrp2.
Data set [11] addresses T2, Mrp2. As to conditions: in vivo.
The conditions of data set [12]: rat, in vivo.

T1 sequence (Q63120 whole entry): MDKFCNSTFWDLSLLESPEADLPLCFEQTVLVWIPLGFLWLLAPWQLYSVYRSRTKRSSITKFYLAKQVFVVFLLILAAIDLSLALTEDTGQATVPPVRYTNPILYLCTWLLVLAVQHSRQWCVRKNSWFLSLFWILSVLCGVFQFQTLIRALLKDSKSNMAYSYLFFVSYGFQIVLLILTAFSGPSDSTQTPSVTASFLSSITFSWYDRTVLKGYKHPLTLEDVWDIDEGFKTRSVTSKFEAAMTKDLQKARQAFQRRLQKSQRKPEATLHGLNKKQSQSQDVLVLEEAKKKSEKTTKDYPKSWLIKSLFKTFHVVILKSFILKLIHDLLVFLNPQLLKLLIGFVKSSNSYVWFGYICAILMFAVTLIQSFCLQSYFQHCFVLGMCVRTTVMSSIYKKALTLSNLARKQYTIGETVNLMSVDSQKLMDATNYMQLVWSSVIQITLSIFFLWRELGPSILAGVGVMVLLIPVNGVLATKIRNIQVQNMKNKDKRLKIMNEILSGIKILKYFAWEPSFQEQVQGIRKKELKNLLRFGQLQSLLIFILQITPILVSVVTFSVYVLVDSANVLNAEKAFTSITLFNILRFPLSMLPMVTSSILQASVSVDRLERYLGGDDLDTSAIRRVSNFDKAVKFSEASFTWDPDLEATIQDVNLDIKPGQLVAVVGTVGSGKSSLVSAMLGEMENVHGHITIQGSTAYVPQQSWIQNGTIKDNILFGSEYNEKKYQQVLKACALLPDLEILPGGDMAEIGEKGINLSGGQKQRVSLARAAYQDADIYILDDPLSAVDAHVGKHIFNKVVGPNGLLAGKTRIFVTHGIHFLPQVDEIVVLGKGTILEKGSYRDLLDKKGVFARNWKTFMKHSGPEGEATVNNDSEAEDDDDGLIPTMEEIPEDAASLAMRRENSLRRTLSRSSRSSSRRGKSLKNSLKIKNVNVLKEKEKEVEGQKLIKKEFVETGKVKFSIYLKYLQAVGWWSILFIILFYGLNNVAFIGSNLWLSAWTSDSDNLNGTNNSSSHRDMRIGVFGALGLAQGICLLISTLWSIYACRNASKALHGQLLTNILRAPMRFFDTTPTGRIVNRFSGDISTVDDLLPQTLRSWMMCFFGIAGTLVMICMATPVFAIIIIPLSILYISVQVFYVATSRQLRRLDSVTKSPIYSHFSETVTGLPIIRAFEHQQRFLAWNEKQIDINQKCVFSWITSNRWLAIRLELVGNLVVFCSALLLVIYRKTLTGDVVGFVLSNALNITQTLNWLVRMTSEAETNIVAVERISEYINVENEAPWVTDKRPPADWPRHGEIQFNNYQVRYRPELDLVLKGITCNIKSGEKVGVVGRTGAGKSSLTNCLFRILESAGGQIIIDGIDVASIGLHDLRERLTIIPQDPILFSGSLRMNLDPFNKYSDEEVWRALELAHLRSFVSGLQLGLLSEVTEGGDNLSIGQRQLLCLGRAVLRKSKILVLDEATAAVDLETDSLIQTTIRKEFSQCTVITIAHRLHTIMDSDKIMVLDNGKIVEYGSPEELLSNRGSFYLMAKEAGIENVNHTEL
T2 sequence (Q63120 whole entry): as above

With `C=CC1=C(C)/C(=C/c2[nH]c(Cc3[nH]c(/C=C4\NC(=O)C(C)=C4C=C)c(C)c3CCC(=O)O)c(CCC(=O)O)c2C)NC1=O` [bilirubin], the “effect on in vitro stimulation of Mrp2-mediated CP-I transport” value at rat Mrp2 [1] (10 µM, result in words) is reported as “suppressed”.

For the compound `CC1(C)S[C@@H]2[C@H](NC(=O)Cc3ccccc3)C(=O)N2[C@H]1C(=O)O` [benzyl penicillin], in the data set with Mrp2 [2], the “transient enhancement of biliary clearance of glutathione (GSH)” value was “about four-fold”.

For `CO[C@H]1/C=C/O[C@@]2(C)Oc3c(C)c(O)c4c(O)c(cc(O)c4c3C2=O)NC(=O)/C(C)=C\C=C\[C@H](C)[C@H](O)[C@@H](C)[C@@H](O)[C@@H](C)[C@H](OC(C)=O)[C@@H]1C` [rifamycin, rifamycin SV], the “effect on CP-I uptake in isolated rat hepatocytes” value in the data set on Oatp is reported as “rifamycin sensitive”.

With `CC(=O)[C@H]1CC[C@H]2[C@@H]3CCC4=CC(=O)CC[C@]4(C)[C@H]3CC[C@]12C` [Progesterone, progesterone], the “effect on rat Mrp2-mediated CP-I transport in vitro” value on rat Mrp2 [3] (CP-I 5 µM) is recorded as “stimulated”. The “stimulation of Mrp2 mediated transport of CP-I” value at rat Mrp2 [3] (modulator 1 µM, CP-I 5 µM) was greater than 1.5 fold. In addition, the “% Net decrease in ATP-dependent CP-I uptake in presence of bilirubin” value at rat Mrp2 [1] (modulator 100 µM) is 17% and 12%. Also, the concentration at 2 h worked out at 197 µM in data set [4] (intravenous, 1 mg/kg i.v., liver homogenate, LC-MS/MS, read-out: Liver Total Concentrations) and 1.86 µM in data set [4] (liver (unbound), intravenous, 1 mg/kg i.v., Fu,liver x total liver concentration, read-out: Liver Unbound Concentrations). Also, in [4] (liver/plasma, intravenous, 1 mg/kg i.v., liver at terminal time point (2 h), read-out: Liver to Plasma Ratio), the Kp at 2 h stood at 1.2. This compound also gave a Cmax in data set [4] (1 mg/kg i.v.) of 165 µM. Also, in “in vitro”, the fraction unbound at 6 h, 10 µM was 0.0094. Also, in the data set with human MRP2, the “stimulation of CP-I transport in human MRP2 vesicles” value was “significant stimulation”. Moreover, the “Bile Flow” value at Mrp2 [5] (after progesterone 1 mg/kg i.v.) was found to be 1.62 ± 0.39 mL/h. For the same compound, at Mrp2 [5] (result in words), the “Mrp2-mediated CP-I transport in vivo (biliary clearance, cumulative amount in bile) before and after treatment” value is “did not stimulate”. The “biliary secretion of CP-III” value on Mrp2 [5] (progesterone 1 mg/kg, from 0.17 to 1.5 h, result in words) is given as “significant decrease”.

Take `CN(C)C(=N)N=C(N)N` [metformin]: the “increase of atorvastatin liver concentration” value with Mrp2 [6] is reported as 1.64 fold.

In the case of `Nc1ccc(S(=O)(=O)c2ccc(N)cc2)cc1` [dapsone], in data set [7], the “stimulation of flurbiprofen metabolism” value is “two-fold”. In addition, the “increase in flurbiprofen clearance” value in data set [8] is 10%.

In the case of `COc1ccc2c(c1)c(CC(=O)O)c(C)n2C(=O)c1ccc(Cl)cc1` [indomethacin], the “decrease of E17βG half-life” value in the data set on Mrp2 [9] (rats ref 16) was 40%. The “effect on E17βG biliary clearance” value with Mrp2 [9] (rats, result in words ref 16) was “increases”. The “effect on MRP2 when CP-I is used as probe substrate” value in the data set with human MRP2 was “inhibitors”.

For the compound coproporphyrin-I [CP-I], the Km at rat Mrp2 [10] came out at 15 ± 6 µM. The “apparent Vmax” value at rat Mrp2 [10] (CP-I uptake, rat Mrp2 membrane vesicles, 37 °C, 15 min, mean ± SD) came to 161 ± 20 pmol/min/mg protein. Besides, the “ATP over AMP ratio of CP-I uptake” value at rat Mrp2 [10] (rat Mrp2 membrane vesicles) is listed as 23. Further, at Mrp2 [11], the “average biliary clearance relative to CP-III” value is recorded as “four-fold higher” and the “basal level excreted in rat bile in 2 h” value is reported as “about 600 pmoles”. For the same compound, the Km with human MRP2 was 7.7 µM.

Regarding coproporphyrin-III [CP-III], the “urinary clearance relative to CP-I” value on Mrp2 [5] (control experiments) was “three-fold higher”. Also, on Mrp2 [5] (endogenous, no modulator), the “basal level excreted in rat bile in 2 h” value is roughly 1200 pmol and the “plasma AUC (0–2 h), basal” value was roughly 9.5 nM·h. Also, the “basal plasma levels relative to CP-I” value at Mrp2 [5] (rats) is given as “three-four times higher”.

For the compound `CCc1oc2ccccc2c1C(=O)c1cc(Br)c(O)c(Br)c1` [benzbromarone], in the data set on human MRP2, the “effect on MRP2 when CP-I is used as probe substrate” value is given as “inhibitors”.

`O=C1c2c(O)ccc(O)c2C(=O)c2c(NCCNCCO)ccc(NCCNCCO)c21` [Mitoxantrone, Mitoxantrone hydrochloride]: the “concentration from which in vitro stimulation started” value at rat Mrp2 [3] is no less than 1 µM. In addition, the “effect on rat Mrp2-mediated CP-I transport in vitro” value on rat Mrp2 [3] (CP-I 5 µM) was “strongest stimulator; also recorded: stimulated”. The “concentrations giving inhibition of Mrp2 mediated CP-I transport” value on rat Mrp2 [3] (bell-shaped curve, higher concentrations) is greater than 250 µM. Also, the “concentrations giving stimulation of Mrp2 mediated CP-I transport” value at rat Mrp2 [3] (bell-shaped curve, lower concentrations) was “up to 250 µM”. Further, the “% Net decrease in ATP-dependent CP-I uptake in presence of bilirubin” value on rat Mrp2 [1] (modulator 200 µM) was 34% and 42%. Further, the concentration at 3 h is 854 µM in [4] (intravenous, 6 mg/kg i.v., liver homogenate, LC-MS/MS, read-out: Liver Total Concentrations); 950 µM in data set [4] (intravenous, 15 mg/kg i.v., liver homogenate, LC-MS/MS, read-out: Liver Total Concentrations); 0.26 µM in data set [4] (liver (unbound), intravenous, 6 mg/kg i.v., Fu,liver x total liver concentration, read-out: Liver Unbound Concentrations). The Kp at 3 h in [4] (liver/plasma, intravenous, 6 mg/kg i.v., read-out: Liver to Plasma Ratio) is 199; in data set [4] (liver/plasma, intravenous, 15 mg/kg i.v., read-out: Liver to Plasma Ratio), 202. In addition, the Cmax in data set [4] (6 mg/kg i.v.) was 4.3 µM; in [4] (15 mg/kg i.v.) it was 4.7 µM. The compound further displayed a fraction unbound at 6 h, 10 µM in the data set “in vitro” of 0.0003. The “toxicity limiting the dose” value in [12] was “observed toxicity”. Further, the “stimulation of CP-I transport in human MRP2 vesicles” value in the data set with human MRP2 is “significant stimulation”. In addition, the “Bile Flow” value at Mrp2 [5] (after mitoxantrone 6 mg/kg i.v.) was determined as 1.05 ± 0.11 mL/h; on Mrp2 [5] (after mitoxantrone 15 mg/kg i.v.), 1.38 ± 0.56 mL/h. Moreover, the “Mrp2-mediated CP-I transport in vivo (biliary clearance, cumulative amount in bile) before and after treatment” value at Mrp2 [5] (result in words) is given as “no significant difference”. Moreover, on Mrp2 [5] (mitoxantrone 6 mg/kg, between 0.25 and 0.5 h, result in words), the “biliary excretion of CP-I and III” value was “significant increase”. Moreover, at Mrp2 [5] (mitoxantrone 15 mg/kg, from 0.33 to 1.25 h, result in words), the “biliary secretion of CP-I” value is given as “decreased”.
